Assay results from the supplement of paper PMC10307832.

How the values were obtained:
Assay in all cases: relative viability (nuclei count vs DMSO), 5 days (fraction); higher = more cells survive
LOU-NH91 = test system: LOU-NH91
How it was run: (§1)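 A single step with final 0.05% Triton X-100, 1% formaldehyde and 1 ug/ml Hoechst fixed the cells and stained nuclei 5 days after treatment. Lung cancer cell lines in 1536-well plates had been treated by pin tool the day after seeding with one drug alone or a fixed anchor-drug dose plus five library-drug doses (not always all listed) in √10 steps, and nuclei were counted on 4× images. Relative viability is the ratio of nuclei in treated wells to nuclei in vehicle wells, taken as the median of duplicate plates.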

NCI-H647 = test system: NCI-H647
How it was run: as §1

A-427 = test system: A-427
How it was run: as §1

NCI-H1793 = test system: NCI-H1793
How it was run: as §1

NCI-H1651 = test system: NCI-H1651
How it was run: as §1

LXF-289 = test system: LXF-289
How it was run: as §1

201T = test system: 201T
How it was run: as §1

COR-L23 = test system: COR-L23
How it was run: as §1

NCI-H520 = test system: NCI-H520
How it was run: as §1

NCI-H23 = test system: NCI-H23
How it was run: as §1

HARA = test system: HARA
How it was run: as §1

NCI-H522 = test system: NCI-H522
How it was run: as §1

NCI-H1650 = test system: NCI-H1650
How it was run: as §1

HCC-78 = test system: HCC-78
How it was run: as §1

NCI-H838 = test system: NCI-H838
How it was run: as §1

NCI-H2405 = test system: NCI-H2405
How it was run: as §1

RERF-LC-KJ = test system: RERF-LC-KJ
How it was run: as §1

UMC-11 = test system: UMC-11
How it was run: as §1

LK-2 = test system: LK-2
How it was run: as §1

PC-3 [JPC-3] = test system: PC-3 [JPC-3]
How it was run: as §1

LCLC-97TM1 = test system: LCLC-97TM1
How it was run: as §1

LCLC-103H = test system: LCLC-103H
How it was run: as §1

NCI-H2347 = test system: NCI-H2347
How it was run: as §1

Question: What does the source list for `Cc1csc(=NC2CCCCC2)n1/N=C/c1ccc(O)c(O)c1O` [MIM1] + Cc1nc(Nc2ncc(C(=O)Nc3c(C)cccc3Cl)s2)cc(N2CCN(CCO)CC2)n1 [Dasatinib] (partner 0.075 µM)?
Answer: relative viability (LOU-NH91; first compound 0.2 µM): 0.502; relative viability (LOU-NH91; first compound 0.6325 µM): 0.529; relative viability (LOU-NH91; first compound 2 µM): 0.537; relative viability (LOU-NH91; first compound 6.325 µM): 0.497; relative viability (LOU-NH91; first compound 20 µM): 0.365; relative viability (NCI-H647; first compound 0.2 µM): 0.232; relative viability (NCI-H647; first compound 0.6325 µM): 0.225; relative viability (NCI-H647; first compound 6.325 µM): 0.145; relative viability (NCI-H647; first compound 20 µM): 0.0584; relative viability (A-427; first compound 0.2 µM): 0.664; relative viability (A-427; first compound 2 µM): 0.716; relative viability (A-427; first compound 6.325 µM): 0.573; relative viability (A-427; first compound 20 µM): 0.178; relative viability (NCI-H1793; first compound 0.2 µM): 0.417; relative viability (NCI-H1793; first compound 2 µM): 0.372; relative viability (NCI-H1793; first compound 6.325 µM): 0.359; relative viability (NCI-H1793; first compound 20 µM): 0.31; relative viability (NCI-H1651; first compound 0.2 µM): 0.509; relative viability (NCI-H1651; first compound 0.6325 µM): 0.464; relative viability (NCI-H1651; first compound 2 µM): 0.458; relative viability (NCI-H1651; first compound 6.325 µM): 0.282; relative viability (NCI-H1651; first compound 20 µM): 0.182; relative viability (LXF-289; first compound 0.2 µM): 0.224; relative viability (LXF-289; first compound 0.6325 µM): 0.174; relative viability (LXF-289; first compound 2 µM): 0.194; relative viability (LXF-289; first compound 6.325 µM): 0.275; relative viability (LXF-289; first compound 20 µM): 0.177; relative viability (201T; first compound 0.2 µM): 0.612; relative viability (201T; first compound 0.6325 µM): 0.614; relative viability (201T; first compound 2 µM): 0.598; relative viability (201T; first compound 6.325 µM): 0.422; relative viability (201T; first compound 20 µM): 0.445; relative viability (COR-L23; first compound 0.2 µM): 0.449; relative viability (COR-L23; first compound 0.6325 µM): 0.552; relative viability (COR-L23; first compound 2 µM): 0.464; relative viability (COR-L23; first compound 6.325 µM): 0.327; relative viability (COR-L23; first compound 20 µM): 0.335; relative viability (NCI-H520; first compound 0.2 µM): 0.19; relative viability (NCI-H520; first compound 0.6325 µM): 0.21; relative viability (NCI-H520; first compound 2 µM): 0.286; relative viability (NCI-H520; first compound 6.325 µM): 0.18; relative viability (NCI-H520; first compound 20 µM): 0.192; relative viability (NCI-H23; first compound 0.2 µM): 0.826; relative viability (NCI-H23; first compound 2 µM): 0.684; relative viability (NCI-H23; first compound 6.325 µM): 0.471; relative viability (NCI-H23; first compound 20 µM): 0.246; relative viability (HARA; first compound 0.2 µM): 0.216; relative viability (HARA; first compound 2 µM): 0.228; relative viability (HARA; first compound 6.325 µM): 0.24; relative viability (HARA; first compound 20 µM): 0.181; relative viability (NCI-H522; first compound 0.2 µM): 0.788; relative viability (NCI-H522; first compound 0.6325 µM): 0.698; relative viability (NCI-H522; first compound 2 µM): 0.93; relative viability (NCI-H522; first compound 6.325 µM): 0.743; relative viability (NCI-H522; first compound 20 µM): 0.585; relative viability (NCI-H1650; first compound 0.2 µM): 0.304; relative viability (NCI-H1650; first compound 0.6325 µM): 0.316; relative viability (NCI-H1650; first compound 2 µM): 0.24; relative viability (NCI-H1650; first compound 6.325 µM): 0.186; relative viability (NCI-H1650; first compound 20 µM): 0.159; relative viability (HCC-78; first compound 0.2 µM): 0.467; relative viability (HCC-78; first compound 0.6325 µM): 0.287; relative viability (HCC-78; first compound 2 µM): 0.435; relative viability (HCC-78; first compound 6.325 µM): 0.344; relative viability (HCC-78; first compound 20 µM): 0.487; relative viability (NCI-H838; first compound 0.2 µM): 0.326; relative viability (NCI-H838; first compound 0.6325 µM): 0.298; relative viability (NCI-H838; first compound 6.325 µM): 0.314; relative viability (NCI-H838; first compound 20 µM): 0.218; relative viability (NCI-H2405; first compound 0.2 µM): 0.21; relative viability (NCI-H2405; first compound 0.6325 µM): 0.225; relative viability (NCI-H2405; first compound 2 µM): 0.209; relative viability (NCI-H2405; first compound 6.325 µM): 0.205; relative viability (NCI-H2405; first compound 20 µM): 0.48; relative viability (RERF-LC-KJ; first compound 0.2 µM): 0.632; relative viability (RERF-LC-KJ; first compound 0.6325 µM): 0.748; relative viability (RERF-LC-KJ; first compound 2 µM): 0.551; relative viability (RERF-LC-KJ; first compound 6.325 µM): 0.361; relative viability (RERF-LC-KJ; first compound 20 µM): 0.228; relative viability (UMC-11; first compound 0.2 µM): 0.474; relative viability (UMC-11; first compound 2 µM): 0.532; relative viability (UMC-11; first compound 6.325 µM): 0.402; relative viability (UMC-11; first compound 20 µM): 0.235; relative viability (LK-2; first compound 0.2 µM): 0.358; relative viability (LK-2; first compound 2 µM): 0.202; relative viability (LK-2; first compound 6.325 µM): 0.269; relative viability (LK-2; first compound 20 µM): 0.176; relative viability (PC-3 [JPC-3]; first compound 0.2 µM): 1.03; relative viability (PC-3 [JPC-3]; first compound 0.6325 µM): 0.976; relative viability (PC-3 [JPC-3]; first compound 2 µM): 0.981; relative viability (PC-3 [JPC-3]; first compound 6.325 µM): 0.904; relative viability (PC-3 [JPC-3]; first compound 20 µM): 0.582; relative viability (LCLC-97TM1; first compound 0.2 µM): 0.866; relative viability (LCLC-97TM1; first compound 0.6325 µM): 0.709; relative viability (LCLC-97TM1; first compound 2 µM): 1.02; relative viability (LCLC-97TM1; first compound 6.325 µM): 0.552; relative viability (LCLC-97TM1; first compound 20 µM): 0.431; relative viability (LCLC-103H; first compound 0.2 µM): 0.422; relative viability (LCLC-103H; first compound 0.6325 µM): 0.519; relative viability (LCLC-103H; first compound 2 µM): 0.512; relative viability (LCLC-103H; first compound 6.325 µM): 0.401; relative viability (LCLC-103H; first compound 20 µM): 0.364; relative viability (NCI-H2347; first compound 0.2 µM): 0.298; relative viability (NCI-H2347; first compound 0.6325 µM): 0.284; relative viability (NCI-H2347; first compound 2 µM): 0.291; relative viability (NCI-H2347; first compound 6.325 µM): 0.339; relative viability (NCI-H2347; first compound 20 µM): 0.26
